From the CheMixHub viscosity set
± gives the uncertainty stated by the source.

Assay: xn = mol fraction of the nth substance listed

O=S1(=O)CCCC1 + OCCOCCO
303.15 K, 101 kPa
Conditions	viscosity [mPa·s]
x1 = 0.0517	20.1 ± 0.1
x1 = 0.0984	18.62 ± 0.1
x1 = 0.206	15.85 ± 0.095
x1 = 0.2958	13.99 ± 0.091
x1 = 0.3988	12.28 ± 0.087
x1 = 0.4469	11.69 ± 0.087
x1 = 0.4997	11.11 ± 0.086
x1 = 0.5346	10.81 ± 0.086
x1 = 0.603	10.31 ± 0.087
x1 = 0.7047	9.829 ± 0.089
x1 = 0.7896	9.536 ± 0.092
x1 = 0.8987	9.51 ± 0.099
x1 = 0.9348	9.614 ± 0.1

Cc1ccc(O)cc1 + CCC(=O)O
viscosity [mPa·s], 101 kPa
Conditions	x2 = 0.1344	x2 = 0.2589	x2 = 0.3745	x2 = 0.4823	x2 = 0.5828	x2 = 0.677	x2 = 0.7653	x2 = 0.8482	x2 = 0.9263
298.15 K	10.16 ± 0.76	7.533 ± 0.59	5.663 ± 0.48	4.309 ± 0.38	3.321 ± 0.3	2.59 ± 0.23	2.042 ± 0.19	1.625 ± 0.15	1.297 ± 0.12
308.15 K	6.121 ± 0.5	4.928 ± 0.43	3.983 ± 0.35	3.238 ± 0.29	2.597 ± 0.23	2.136 ± 0.2	1.709 ± 0.16	1.372 ± 0.13	1.112 ± 0.11
318.15 K	4.876 ± 0.42	4.035 ± 0.35	3.365 ± 0.3	2.772 ± 0.25	2.281 ± 0.21	1.853 ± 0.17	1.512 ± 0.14	1.241 ± 0.12	0.9766 ± 0.097

O=S(=O)([O-])NC1CCCCC1.[Rb+] + O
viscosity [mPa·s], 101 kPa
Conditions	x1 = 0.00091	x1 = 0.001356	x1 = 0.001833	x1 = 0.002303	x1 = 0.002722	x1 = 0.003185	x1 = 0.003618	x1 = 0.004055	x1 = 0.004552
293.15 K	1.024 ± 0.0068	1.036 ± 0.0069	1.048 ± 0.007	1.061 ± 0.0071	1.072 ± 0.0071	1.084 ± 0.0072	1.096 ± 0.0072	1.108 ± 0.0073	1.123 ± 0.0074
298.15 K	0.9105 ± 0.0062	0.9203 ± 0.0062	0.9315 ± 0.0063	0.9419 ± 0.0063	0.9516 ± 0.0064	0.962 ± 0.0065	0.9723 ± 0.0065	0.9828 ± 0.0066	0.9953 ± 0.0066
303.15 K	0.8157 ± 0.0056	0.8243 ± 0.0056	0.8343 ± 0.0057	0.8431 ± 0.0057	0.8516 ± 0.0058	0.8608 ± 0.0058	0.8696 ± 0.0059	0.8789 ± 0.0059	0.8887 ± 0.006
313.15 K	0.6675 ± 0.0047	0.6747 ± 0.0047	0.6824 ± 0.0048	0.6896 ± 0.0048	0.696 ± 0.0049	0.7034 ± 0.0049	0.7104 ± 0.0049	0.7177 ± 0.005	0.7252 ± 0.005
323.15 K	0.5585 ± 0.0041	0.564 ± 0.0041	0.5704 ± 0.0041	0.5762 ± 0.0042	0.5814 ± 0.0042	0.5874 ± 0.0042	0.5931 ± 0.0043	0.5992 ± 0.0043	0.6057 ± 0.0043

CCCCOCCOCCO + ClC(Cl)=C(Cl)Cl
298.15 K, 101.33 kPa
Conditions	viscosity [mPa·s]
x1 = 0.0092	0.859 ± 0.009
x1 = 0.0253	0.883 ± 0.009
x1 = 0.0385	0.91 ± 0.009
x1 = 0.0481	0.929 ± 0.009
x1 = 0.0583	0.95 ± 0.009
x1 = 0.0816	1.001 ± 0.01
x1 = 0.0932	1.03 ± 0.01
x1 = 0.1188	1.09 ± 0.011
x1 = 0.1559	1.186 ± 0.012
x1 = 0.1903	1.289 ± 0.013
x1 = 0.2322	1.413 ± 0.014
x1 = 0.2748	1.557 ± 0.015
x1 = 0.3127	1.691 ± 0.017
x1 = 0.3556	1.851 ± 0.018
x1 = 0.3911	2 ± 0.02
x1 = 0.4295	2.16 ± 0.021
x1 = 0.4585	2.288 ± 0.023
x1 = 0.4917	2.445 ± 0.024
x1 = 0.531	2.635 ± 0.026
x1 = 0.575	2.845 ± 0.029
x1 = 0.6181	3.066 ± 0.031
x1 = 0.666	3.31 ± 0.034
x1 = 0.7112	3.548 ± 0.037
x1 = 0.7734	3.894 ± 0.041
x1 = 0.8415	4.283 ± 0.045
x1 = 0.8983	4.615 ± 0.049
x1 = 0.929	4.805 ± 0.052
x1 = 0.9482	4.918 ± 0.053
x1 = 0.9696	5.061 ± 0.055
x2 = 0.0169	5.131 ± 0.055

CC(O)CC(C)(C)O (stereo not drawn) + O=Cc1ccccc1
viscosity [mPa·s], 101 kPa
Conditions	x1 = 0.0921	x1 = 0.1829	x1 = 0.2762	x1 = 0.3752	x1 = 0.4712	x1 = 0.5787	x1 = 0.6736	x1 = 0.775	x1 = 0.8828
308.15 K	1.337 ± 0.13	1.484 ± 0.15	1.717 ± 0.17	2.062 ± 0.21	2.679 ± 0.27	3.484 ± 0.35	4.864 ± 0.49	7.155 ± 0.72	10.92 ± 1.1
318.15 K	1.004 ± 0.1	1.149 ± 0.12	1.368 ± 0.14	1.7 ± 0.17	2.157 ± 0.22	2.801 ± 0.28	3.804 ± 0.38	5.903 ± 0.59	9.45 ± 0.95

Cc1ccc(O)cc1 + Cc1cccc(O)c1
Conditions	viscosity [mPa·s]
298.15 K, 101 kPa, x2 = 0.1388	14.5 ± 0.23
298.15 K, 101 kPa, x2 = 0.2461	14.32 ± 0.23
298.15 K, 101 kPa, x2 = 0.3003	14.25 ± 0.23
298.15 K, 101 kPa, x2 = 0.452	14 ± 0.22
298.15 K, 101 kPa, x2 = 0.4823	13.93 ± 0.22
298.15 K, 101 kPa, x2 = 0.5521	13.85 ± 0.22
298.15 K, 101 kPa, x2 = 0.6238	13.73 ± 0.22
298.15 K, 101 kPa, x2 = 0.6733	13.69 ± 0.22
298.15 K, 101 kPa, x2 = 0.7071	13.61 ± 0.21
298.15 K, 101 kPa, x2 = 0.7373	13.6 ± 0.21
298.15 K, 101 kPa, x2 = 0.8267	13.52 ± 0.21
298.15 K, 101 kPa, x2 = 0.9135	13.46 ± 0.21
313.15 K, 101.3 kPa, x2 = 0.1	6.798 ± 0.13
313.15 K, 101.3 kPa, x2 = 0.2	6.861 ± 0.092
313.15 K, 101.3 kPa, x2 = 0.3	6.878 ± 0.083
313.15 K, 101.3 kPa, x2 = 0.4	6.855 ± 0.1
313.15 K, 101.3 kPa, x2 = 0.5	6.75 ± 0.14
313.15 K, 101.3 kPa, x2 = 0.6	6.625 ± 0.13
313.15 K, 101.3 kPa, x2 = 0.7	6.547 ± 0.13
313.15 K, 101.3 kPa, x2 = 0.8	6.409 ± 0.14
313.15 K, 101.3 kPa, x2 = 0.9	6.321 ± 0.11
323.15 K, 101.3 kPa, x2 = 0.1	4.564 ± 0.1
323.15 K, 101.3 kPa, x2 = 0.2	4.653 ± 0.073
323.15 K, 101.3 kPa, x2 = 0.3	4.653 ± 0.06
323.15 K, 101.3 kPa, x2 = 0.4	4.618 ± 0.08
323.15 K, 101.3 kPa, x2 = 0.5	4.54 ± 0.11
323.15 K, 101.3 kPa, x2 = 0.6	4.439 ± 0.12
323.15 K, 101.3 kPa, x2 = 0.7	4.337 ± 0.11
323.15 K, 101.3 kPa, x2 = 0.8	4.246 ± 0.096
323.15 K, 101.3 kPa, x2 = 0.9	4.175 ± 0.085

O=S(=O)(Cl)Cl + C1CCCCC1
298.15 K, 101 kPa
Conditions	viscosity [mPa·s]
x1 = 0.321	0.7303
x1 = 0.647	0.677
x1 = 0.797	0.6695

Cc1ccc(O)cc1 + c1ccncc1
viscosity [mPa·s], 101 kPa
Conditions	x1 = 0.163	x1 = 0.2353	x1 = 0.3282	x1 = 0.3907	x1 = 0.4666	x1 = 0.527	x1 = 0.6065	x1 = 0.6911	x1 = 0.7846	x1 = 0.881
293.15 K	1.451 ± 0.014	1.808 ± 0.018	2.535 ± 0.025	3.105 ± 0.032	4.215 ± 0.046	5.315 ± 0.06	7.365 ± 0.086	10.04 ± 0.13	13.24 ± 0.19	16.16 ± 0.25
303.15 K	1.363 ± 0.013	1.628 ± 0.015	2.115 ± 0.021	2.565 ± 0.025	3.31 ± 0.03	4.08 ± 0.04	5.265 ± 0.057	6.635 ± 0.077	7.97 ± 0.1	9.26 ± 0.13
313.15 K	1.139 ± 0.011	1.37 ± 0.013	1.727 ± 0.017	2.065 ± 0.02	2.6 ± 0.025	3.115 ± 0.03	3.83 ± 0.038	4.66 ± 0.05	5.415 ± 0.055	6.02 ± 0.06

OC1COCOC1 + CC(O)CO
viscosity [mPa·s], 101 kPa
Conditions	x1 = 0.1001	x1 = 0.2022	x1 = 0.2993	x1 = 0.3988	x1 = 0.5	x1 = 0.5991	x1 = 0.7069	x1 = 0.8004	x1 = 0.9002
298.15 K	40.55 ± 0.92	35.63 ± 0.81	31.87 ± 0.73	28.95 ± 0.66	26.18 ± 0.6	23.35 ± 0.53	20.25 ± 0.46	17.68 ± 0.4	15.39 ± 0.34
308.15 K	23.27 ± 0.56	20.32 ± 0.49	18.06 ± 0.44	16.28 ± 0.39	14.83 ± 0.36	13.52 ± 0.32	12.12 ± 0.28	10.93 ± 0.25	9.829 ± 0.23
318.15 K	14.08 ± 0.35	12.09 ± 0.3	10.67 ± 0.27	9.707 ± 0.24	9.031 ± 0.22	8.445 ± 0.21	7.772 ± 0.19	7.179 ± 0.17	6.681 ± 0.15
